# Laboratory results: PubChem BioAssay AID1288 (Columbia University Molecular Screening Center, 2008)
# The source made the active and inactive calls. No rule for the calls is given here.
# Experiments:
# [1] = E-selectin induction blockers, endothelial cells – imaging, retest plus dose response, cell count, confirmation (AID 1288); details: human endothelial cells, TNFa-induced E-selectin, imaging; cell count toxicity; at 10 µM; stronger effect = lower value
# [2] = test system: human endothelial cells, TNFa-induced E-selectin, imaging; assay: as above
SMILES,cell count [1],IC50 [2]
CCOC(=O)/C=C/S(=O)(=O)c1ccc(NC(C)=O)cc1,6.27%,1.39 µM
O=C(OCn1ncc(Cl)c(Cl)c1=O)c1ccc(F)cc1,107%,> 10 µM (inactive)
CCOc1cc(C(=O)NCc2ccc(-c3nc4ccccc4o3)cc2)cc(OCC)c1OCC,22.9%,2.39 µM
COc1ccc(Oc2cc(NC(=O)c3nn(C)cc3[N+](=O)[O-])cc([N+](=O)[O-])c2)cc1,23.9%,3.5 µM
COC(=O)/C=C/S(=O)(=O)c1ccc(NC(C)=O)cc1,106%,> 10 µM (inactive)
O=C(OCn1ncc(Br)c(Br)c1=O)c1ccc(F)cc1,53.9%,> 10 µM (inactive)
COC(=O)C1CN(C#N)N(c2ccc(Cl)cc2)C12c1ccccc1-c1ccccc12 (stereo not drawn),113%,> 10 µM (inactive)
O=C(OCn1ncc(Cl)c(Cl)c1=O)c1ccccc1Cl,45.3%,> 10 µM (inactive)
CCc1ccc(N2C(=O)NC(=O)/C(=C/c3cccn3CCOc3ccc(C(C)CC)cc3)C2=O)cc1 (stereo not drawn),17.9%,1.37 µM
